Data from ChEMBL document CHEMBL1149680, “Unique spirocyclopiperazinium salt. Part 4: modification of dispirocyclopiperazinium (DSPZ) salts as analgesics” (Bioorg Med Chem Lett, 2007).

Assays:
Mus musculus [1] = assay: Analgesic activity against acetic acid-induced writhing in mouse at 0.04 mmol/kg, sc relative to control; type: functional
Mus musculus [2] = assay: Analgesic activity in mouse assessed as latency time at 0.04 mmol/kg, sc by hot plate method relative to control; type: functional

Molecule C(CN1CC[N+]2(CCCC2)CC1)CN1CC[N+]2(CCCC2)CC1.[Br-].[Br-] has an inhibition in vivo at 40 µmol/kg (Mus musculus [1]) of 81% and an Activity (Mus musculus [2]) of 64.2%.
